From patent US20220167645A1, “METHODS OF IMPROVING FISH FEED CONVERSION RATE AND SURVIVAL” (AQUINOVO LTD., priority 2019, published 2022)
Numbered stars: 1 amine (or outer) side, 2 acyl side, 3 side chain; on linkers, the order of the positions; unused ones are H or OH. Square brackets hold non-standard residues; d marks the D form. Suc = O=C(CCC(=O)[*:2])[*:1]; NMeV = CN[C@H](C(=O)O)C(C)C; βAla = NCCC(=O)O

Legend:
Tilapia fish [1] = assay: Experiment #2: tilapia fed AN6-coated feed 60-150 dph (growth, biomass, FCR, intestine weight); type: in vivo
Protocol: MeM (powder, manufactured by Bern Aqua), Nanolis P1, P2 (pellet sizes of 0.8-1 mm, 1-1.5 mm, respectively, manufactured by Ocialis) and Tilaphi 1, 2 & 3 (pellet sizes of 1-1.5 mm, 2 mm, 3-5.5 mm, respectively, manufactured by Ocialis) were used as basic regular feed. The basic feed was coated according to the following general procedure: 9 ml or 3 ml of Tris-HCl solution (50 mM, pH=8.8) were diluted to 60 ml with distilled H2O. For AN6-containing feed preparation, desired amounts of AN6 peptide (a TK antagonist having the sequence Succ-Asp-Ser-D-Trp—N(Me)Val-βAla-Leu-Met-NH2, SEQ ID NO. 6) were dissolved in the Tris-HCl solution. Then, each of the various solutions was mixed with 3 Kg of basic feed pellets using an electric mixer. The peptide-feed mixtures where then dried either in oven at 40° C. for 24 hours or in drying drum for few hours to form coated pellets. The total amount of each feed was 3 Kg.
Tilapia fish (n=1440) have been raised from day 60 to day 119 post-hatch in indoor tanks and then transferred to outdoor tanks (120-150 dph) followed by cages in ponds (150-243 dph). The fish were fed to apparent satiation 2-4 times a day, for 90 days (60-150 dph) either with regular feed (Feed A, Group C, n=60 in 8 repeats); feed coated with AN6 peptide solution in ratio of 5 mg AN6/Kg feed (5 ppm, Feed B, Group D, n=60 in 8 repeats); or feed coated with AN6 peptide solution in ratio of 10 mg AN6/Kg feed (Feed C, Group E, n=60 in 8 repeats).
During the experimental period, the average fish weight was measured, and the daily growth rate was calculated by dividing the average weight gained in each measuring period by the number of days since the last measurement. […] However, from age 200 dph, a considerable jump in fish performance and FCR was observed, reaching a maximal level at the last measurement point (243 dph, +8.4% average weight, +18% weight gain, +10% total biomass; FIG. 1, experiment #2 and FIG. 3B). The effect on growth was evident even when considering differences in initial body weight (FIG. 2B).
(§1) In order to determine the efficiency of feed conversion into fish substance in experiments (#1, #2, #3), FCR values which reflect the amount of feed needed to grow a kilogram fish, were calculated for each period and for the entire fish growth period. In order to determine the amount of consumed feed, the amount of feed provided was measured daily for each tank and the leftovers were collected, weighted and subtracted from the total amount of feed. Dead fish were removed every day before each feeding and then counted and weighed for accurate calculation of feed intake and FCR. It is to be noted that high mortality can still influence FCR values since feed eaten by fish that have later died cannot be subtracted from the total feed consumed and on the other hand periodic total fish weight gained is underestimated (dead fish are not included). Three FCR values were calculated according to the following formulas:
At the end of the experiment described in example 3 (experiment #2), 6 fish from each cage/tank (3 females and 3 males, n=24 per treatment group) were sacrificed and whole intestine was removed and weighted.

Tilapia fish [2] = assay: Experiment #3: tilapia fed AN6-coated feed, treatment schedules 1 to 8 (survival, weight, length, size distribution, FCR); type: in vivo; conditions: 10 mg AN6/Kg feed from 10 dph for 90 days; D279; compared to control
Tilapia fish [3] = assay: Experiment #1: tilapia fed AN6-coated feed in two phases (growth, biomass, mortality, FCR); type: in vivo; conditions: second phase, adult fish 195-263 dph; 50 days of 30 mg AN6/Kg feed; compared to control
[4] = AN6 half-life in blood and residual peptide in muscle and plasma; conditions: in vivo
Tilapia fish [5] = assay: Experiment #2: tilapia fed AN6-coated feed 60-150 dph (growth, biomass, FCR, intestine weight); type: in vivo; conditions: 5 mgAN6/Kg feed from 60 dph for 150 days
Tilapia fish [6] = assay: Feed conversion rate (FCR) calculated over experiments #1, #2, #3; type: in vivo
Protocol: as §1
Specifically, improved FCR is observed 30 to 90 days after treatment initiation and can last at least 100 days after treatment stopped.

[7] = 10 mg/Kg feed, Group E, last measurement point 243 dph, vs control

## Succ-Asp-Ser- D-Trp -N(Me)Val-βAla-Leu-Met-NH2 (Suc-DS[dW][NMeV][βAla]LM-NH2; SMILES CSCC[C@H](NC(=O)[C@H](CC(C)C)NC(=O)CCNC(=O)[C@H](C(C)C)N(C)C(=O)[C@@H](Cc1c[nH]c2ccccc12)NC(=O)[C@H](CO)NC(=O)[C@H](CC(=O)O)NC(=O)CCC(=O)O)C(N)=O) [AN6]
Tilapia fish [1]; 10 mg/Kg feed, Group E (fed 60-150 dph), age 95 to 165 dph, vs control
  increase in fish average weight and growth rate: ~+3%
Tilapia fish [1]; [7]
  average weight: +8.4%
  total biomass: +10%
  weight gain: +18%
Tilapia fish [1]; 10 mgAN6/Kg feed, Group E (control 2.8%)
  number of fish in the upper 6.5th decile: 7.2%
Tilapia fish [1]; 10 mgAN6/Kg feed, Group E (control 18.4%)
  number of fish in the lower 2th decile: 13.2%
Tilapia fish [1]; FIG. 4, 5 and 10 mg/Kg for 90 days (60-150 dph)
  weight gain of male and female populations analysed separately: better performance than control
Tilapia fish [1]; male fish treated with 10 mg AN6/Kg feed, end of experiment #2, vs control, FIG. 6
  ratio between intestine weight and fish weight (ISI): +21%
Tilapia fish [2]
  increase in average fish weight: +3.89%
Tilapia fish [3]
  increase in average fish weight: +6.84%
  increase in average weight gained: +13%
[4]
  cleared from blood: ~4.5 min
  half-life time in blood: very short
  peptide residual in muscle and blood after treatment: no peptide residual is detected
  residual peptide in muscle and plasma following treatment: non residual peptide was observed
Tilapia fish [5]
  FCR: improved FCR significantly
  growth: not sufficient to improved growth
Tilapia fish [6]; 5, 10 mg and 30 mg AN6/Kg feed in other cases (experiments #2 and #3), with decrease in feed intake
  FCR-growth relationship: improved FCR which did not coincide with improved growth
Tilapia fish [6]; all AN6 peptide treatments, FIGS. 5A, 5B, 10, 11, 12
  FCR in adult fish: significantly improves FCR
Tilapia fish [6]; in vivo
  duration of improved FCR after treatment stopped: at least 100 days
